Test results reported in patent publication US9445594B2, “Molecules having certain pesticidal utilities, intermediates, compositions, and processes, related thereto” (priority 2014, dated 2016).

What was measured:
Assay type in all cases: in vivo
[1] = tested on: Yellow Fever Mosquito (Aedes aegypti, AEDSAE) ("YFM"); experiment: Bioassays on YFM, 96-well plate larval assay; settings: about 1 day-old larvae, from 4000 ppm DMSO master plate diluted, room temperature, scored after 3 days
How it was run: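 Compounds from 4000 ppm DMSO master plates, diluted in 90:10 water:acetone, dispensed into 96-well plates, six replicates. About 1-day-old larvae added in liver-powder water. Wells covered, held 3 days at room temperature, then scored for mortality.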

[2] = tested on: Cabbage Looper (Trichoplusia ni, TRIPNI) ("CL"); experiment: Bioassays on CL, 128-well diet tray assay; settings: 168 h, second instar larvae, 50 μg/cm^2 on artificial diet, 25° C., five to seven days, average of eight wells, read-out: CL % Control (or Mortality) rating
How it was run: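 Second-instar larvae (one to five per well) on artificial diet surface-treated with 50 μg/cm^2 compound in 90:10 acetone-water, eight wells per treatment. Held at 25° C., 14:10 light-dark for five to seven days. Percent mortality scored per well and averaged over the eight wells.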

[3] = tested on: Corn Earworm (Helicoverpa zea, HELIZE) ("CEW"); experiment: Bioassays on CEW, 128-well diet tray assay; settings: 168 h, second instar larvae, 50 μg/cm^2 on artificial diet, 25° C., five to seven days, average of eight wells, read-out: CEW % Control (or Mortality) rating
Experimental: Certain molecules disclosed in this document were tested against BAW, CEW, and CL using procedures described in the following examples. In the reporting of the results, the “BAW, CEW, & CL Rating Table” was used (See Table Section).
Bioassays on CEW were conducted using a 128-well diet tray assay. one to five second instar CEW larvae were placed in each well (3 mL) of the diet tray that had been previously filled with 1 mL of artificial diet to which 50 μg/cm^2 of the test compound (dissolved in 50 μL of 90:10 acetone-water mixture) had been applied (to each of eight wells) and then allowed to dry. Trays were covered with a clear self-adhesive cover, and held at 25° C., 14:10 light-dark for five to seven days. Percent mortality was recorded for the larvae in each well; activity in the eight wells was then averaged. The results are indicated in the table entitled “Table ABC: Biological Results” (See Table Section). Bioassays on CL

[4] = tested on: Beet Armyworm (Spodoptera exigua, LAPHEG) ("BAW"); experiment: Bioassays on BAW, 128-well diet tray assay; settings: 168 h, second instar larvae, 50 μg/cm^2 on artificial diet, 25° C., five to seven days, average of eight wells, read-out: BAW % Control (or Mortality) rating
How it was run: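 One to five second-instar larvae were placed per well on artificial diet surface-treated with 50 μg/cm^2 compound from 90:10 acetone-water, dried before infestation. Trays were held at 25 °C, 14:10 light-dark, for five to seven days. Percent mortality was averaged over eight wells.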

[5] = tested on: Green Peach Aphid (Myzus persicae, MYZUPE) ("GPA"); experiment: Bioassays on GPA, foliar spray of infested cabbage seedlings; settings: 72 h, 200 ppm spray on cabbage seedlings, graded after three days, Abbott corrected % control, read-out: GPA % Control (or Mortality) rating
Experimental: Certain molecules disclosed in this document were tested against GPA using procedures described in the following example. In the reporting of the results, the “GPA Rating Table” was used (See Table Section).
Cabbage seedlings grown in 3-inch pots, with 2-3 small (3-5 cm) true leaves, were used as test substrate. The seedlings were infested with 20-50 GPA (wingless adult and nymph stages) one day prior to chemical application. Four pots with individual seedlings were used for each treatment. Test compounds (2 mg) were dissolved in 2 mL of acetone/methanol (1:1) solvent, forming stock solutions of 1000 ppm test compound. The stock solutions were diluted 5× with 0.025% Tween 20 in water to obtain the solution at 200 ppm test compound. A hand-held aspirator-type sprayer was used for spraying a solution to both sides of […] leaves until runoff. Reference plants (solvent check) were sprayed with the diluent only containing 20% by volume of acetone/methanol (1:1) solvent. Treated plants were held in a holding room for three days at approximately 25° C. and ambient relative humidity (RH) prior to grading. Evaluation was conducted by counting the number of live aphids per plant under a microscope. Percent Control was measured by using Abbott's correction formula (W. S. Abbott, “A Method of Computing the Effectiveness of an Insecticide” J. Econ. Entomol. 18 (1925), pp. 265-267) as follows. Corrected % Control=100*(X−Y)/X • where • X=No. of live aphids on solvent check plants and • Y=No. of live aphids on treated plants

SMILES | YFM % Control (or Mortality) rating [1] | mortality at 50 µg/cm2 [2] [%] | mortality at 50 µg/cm2 [3] [%] | mortality at 50 µg/cm2 [4] [%] | mortality at 200 ppm [5] [%]
FC(F)(F)Oc1ccc(-n2cnc(-c3ccc(NC(=S)Nc4ccccc4-c4ccco4)cc3)n2)cc1 [F30, 1-(2-(Furan-2-yl)phenyl)-3-(4-(1-(4-(trifluoromethoxy)phenyl)-1H-1,2,4-triazol-3-yl)phenyl)thiourea] | A (80-100) | 50 to 100 | 50 to 100 | 50 to 100 | –
CC(C)c1ccccc1NC(=O)NCc1ccc(-c2ncn(-c3ccc(OC(F)(F)C(F)(F)F)cc3)n2)cc1 [F34, 1-(2-isopropylphenyl)-3-(4-(1-(4-(perfluoroethoxy)phenyl)-1H-1,2,4-triazol-3-yl)benzyl)urea] | – | 50 to 100 | 50 to 100 | 0 | –
Cc1ccc(C(C)C)c(NC(=S)NCCCc2ccc(-c3ncn(-c4ccc(OC(F)(F)F)cc4)n3)cc2)c1 [F29, 1-(2-isopropyl-5-methylphenyl)-3-(3-(4-(1-(4-(trifluoromethoxy)phenyl)-1H-1,2,4-triazol-3-yl)phenyl)propyl)thiourea] | A (80-100) | 50 to 100 | 50 to 100 | 50 to 100 | –
CSc1ccc(NC(=S)Nc2ccc(-c3ncn(-c4ccc(OC(F)(F)F)cc4)n3)cc2)cn1 [F27, 1-(6-(Methylthio)pyridin-3-yl)-3-(4-(1-(4-(trifluoromethoxy)phenyl)-1H-1,2,4-triazol-3-yl)phenyl)thiourea] | – | – | 0 | 0 | –
FC(F)(F)Oc1ccc(-n2cnc(-c3ccc(NC(=S)Nc4ccccc4-n4cccc4)cc3)n2)cc1 [F74, 1-(2-(1H-Pyrrol-1-yl)phenyl)-3-(4-(1-(4-(trifluoromethoxy)phenyl)-1H-1,2,4-triazol-3-yl)phenyl)thiourea] | – | 50 to 100 | 50 to 100 | 50 to 100 | –
FC(F)(F)Oc1ccc(-n2cnc(-c3ccc(NC(=S)Nc4cnccc4C(F)(F)F)cc3)n2)cc1 [F12, 1-(4-(1-(4-(trifluoromethoxy)phenyl)-1H-1,2,4-triazol-3-yl)phenyl)-3-(4-(trifluoromethyl)pyridin-3-yl)thiourea] | – | – | 0 | 0 | –
Cc1ccc(C(C)C)c(NC(=O)Nc2ccc(-c3ncn(-c4ccc(OC(F)(F)C(F)(F)F)cc4)n3)cc2)c1 [F57, 1-(2-Isopropyl-5-methylphenyl)-3-(4-(1-(4-(perfluoroethoxy)phenyl)-1H-1,2,4-triazol-3-yl)phenyl)urea] | D (No activity noticed in this bioassay) | 50 to 100 | 50 to 100 | 50 to 100 | –
FC(F)(F)Oc1ccc(-n2cnc(-c3ccc(NC(=S)Nc4ccc5ccccc5c4)cc3)n2)cc1 [F25, 1-(Naphthalen-2-yl)-3-(4-(1-(4-(trifluoromethoxy)phenyl)-1H-1,2,4-triazol-3-yl)phenyl)thiourea] | – | – | 50 to 100 | 50 to 100 | –
CC(C)c1ccccc1NC(=O)NCc1ccc(-c2ncn(-c3ccc(OC(F)(F)F)cc3)n2)cc1 [F65, 1-(2-Isopropylphenyl)-3-(4-(1-(4-(trifluoromethoxy)phenyl)-1H-1,2,4-triazol-3-yl)benzyl)urea] | D (No activity noticed in this bioassay) | 50 to 100 | 0 to 50 | 0 | –
CC(C)n1cnnc1-c1ccccc1NC(=O)Nc1ccc(-c2ncn(-c3ccc(OC(F)(F)F)cc3)n2)cc1 [F55, 1-(2-(4-Isopropyl-4H-1,2,4-triazol-3-yl)phenyl)-3-(4-(1-(4-(trifluoromethoxy)phenyl)-1H-1,2,4-triazol-3-yl)phenyl)urea] | A (80-100) | 50 to 100 | 0 | 50 to 100 | –
N#Cc1ccc(NC(=S)Nc2ccc(-c3ncn(-c4ccc(OC(F)(F)F)cc4)n3)cc2)cc1 [F7, 1-(4-Cyanophenyl)-3-(4-(1-(4-(trifluoromethoxy)phenyl)-1H-1,2,4-triazol-3-yl)phenyl)thiourea] | – | – | 0 | 0 | –
O=C(NCc1ccc(-c2ncn(-c3ccc(OC(F)(F)C(F)(F)F)cc3)n2)cc1)Nc1ccccc1-c1ccccc1 [F73, 1-([1,1′-Biphenyl]-2-yl)-3-(4-(1-(4-(perfluoroethoxy)phenyl)-1H-1,2,4-triazol-3-yl)benzyl)urea] | – | 50 to 100 | 50 to 100 | 50 to 100 | –
CCOc1ccc(NC(=S)Nc2ccc(-c3ncn(-c4ccc(OC(F)(F)F)cc4)n3)cc2)cn1 [F14, 1-(6-Ethoxypyridin-3-yl)-3-(4-(1-(4-(trifluoromethoxy)phenyl)-1H-1,2,4-triazol-3-yl)phenyl)thiourea] | – | – | 0 | 0 | –
O=C(Nc1ccc(-c2ncn(-c3ccc(OC(F)(F)F)cc3)n2)cc1)Nc1ccccc1-c1ccco1 [F21, 1-(2-(Furan-2-yl)phenyl)-3-(4-(1-(4-(trifluoromethoxy)phenyl)-1H-1,2,4-triazol-3-yl)phenyl)urea] | D (No activity noticed in this bioassay) | 50 to 100 | 50 to 100 | 50 to 100 | –
O=C(Nc1ccc(-c2ncn(-c3ccc(OC(F)(F)F)cc3)n2)cc1)Nc1ccccc1C1CC1 [F40, 1-(2-cyclopropylphenyl)-3-(4-(1-(4-(trifluoromethoxy)phenyl)-1H-1,2,4-triazol-3-yl)phenyl)urea] | – | 50 to 100 | 50 to 100 | 50 to 100 | –
COc1ccc(NC(=S)Nc2ccc(-c3ncn(-c4ccc(OC(F)(F)F)cc4)n3)cc2)cc1 [F71, 1-(4-Methoxyphenyl)-3-(4-(1-(4-(trifluoromethoxy)phenyl)-1H-1,2,4-triazol-3-yl)phenyl)thiourea] | – | – | 50 to 100 | 50 to 100 | –
COc1ccc(NC(=S)Nc2ccc(-c3ncn(-c4ccc(OC(F)(F)F)cc4)n3)cc2)c(C)c1 [F43, 1-(4-Methoxy-2-methylphenyl)-3-(4-(1-(4-(trifluoromethoxy)phenyl)-1H-1,2,4-triazol-3-yl)phenyl)thiourea] | – | – | 50 to 100 | 50 to 100 | –
O=C(Nc1ccc(F)cc1)Nc1ccc(-c2ncn(-c3ccc(OC(F)(F)F)cc3)n2)cc1 [F17, 1-(4-fluorophenyl)-3-(4-(1-(4-(trifluoromethoxy)phenyl)-1H-1,2,4-triazol-3-yl)phenyl)urea] | D (No activity noticed in this bioassay) | – | 0 | 0 | –
CC(C)c1ccccc1NC(=S)Nc1ccc(-c2ncn(-c3ccc(OC(F)(F)F)cc3)n2)cc1 [F3, 1-(2-isopropylphenyl)-3-(4-(1-(4-(trifluoromethoxy)phenyl)-1H-1,2,4-triazol-3-yl)phenyl)thiourea] | – | – | 50 to 100 | 50 to 100 | –
Cc1cc(C)cc(NC(=O)NCCCc2ccc(-c3ncn(-c4ccc(OC(F)(F)F)cc4)n3)cc2)c1 [P1, 1-(3,5-Dimethylphenyl)-3-(3-(4-(1-(4-(trifluoromethoxy)phenyl)-1H-1,2,4-triazol-3-yl)phenyl)propyl)urea] | D (No activity noticed in this bioassay) | 0 | – | 0 | 0
